Laboratory results as given in PMC3438169 (PLoS ONE, 2012).
*1 amine or outer side, *2 acyl side, *3 side chain or, on linkers, in order; H or OH if unused. Where a SMILES comes first, the peptide text is derived from it. [ ]: non-standard residue; d: D form. dAla(ψthiazole) = C[C@@H](N[*:1])c1nc(C(=O)[*:2])cs1; Trp(4-OMe) = COc1cccc2[nH]cc(C[C@H](N)C(=O)O)c12; dAbu = CC[C@@H](N)C(=O)O; Dha = C=C(N)C(=O)O; Sar = CNCC(=O)O

Assays:
[1] = tested on: P. aeruginosa; experiment: Broth microdilution susceptibility to argyrin B, P. aeruginosa strains; assay type: cell-based; settings: for Susceptibility to argyrin B: broth microdilution
[2] = tested on: HCT116; experiment: Cell viability (CellTiter-Glo), HCT116 with siRNA or mEF-G1 variants; assay type: cell-based, human; settings: 7 days
Description: HCT116 (ATCC, CCL-247) and RKO (ATCC, CRL-2577) cell lines were maintained in a humidified incubator at 37°C and 5% CO2 in RPMI1640 supplemented with 10% FBS. Cell viability was determined using the CellTiter-Glo luminescent cell viability assay (Promega). […] Subsequently, 40 µl of CellTiter-Glo reagent was added to each well and luminescence recorded on an Envision plate reader (Perkin Elmer). Each treatment condition was tested in triplicate and compared to an equivalent volume of DMSO as control.
Non-targeting (NT) or GFM1 siRNA pools were obtained from Dharmacon (ON-TARGETplus SMART pool D-001810 and L-013685). HCT116 and RKO cells were reverse transfected in 6-well plates using RNAiMax (Invitrogen) and 25 nM siRNA. After 2 days, cells were harvested by trypsinization and re-plated into 6-well plates for western blot analysis or into 384-well plates for compound treatments and cell viability determination using CellTiter-Glo as described above.
The human GFM1 cDNA (encoding mEF-G1, Table 2) was mutagenized in pENTR221 (Invitrogen) using QuikChangeII XL site-directed mutagenesis (Stratagene). The following point mutations were introduced: C1355T (encoding S452L), C1481T (encoding S494F) and T2078A (encoding L693Q). The GFM1 cDNAs were then subcloned into the mammalian expression vector pLenti4/TO/V5 using LR clonase II (Invitrogen) and sequence-verified. The pLenti4 constructs were then co-transfected with a lentiviral plasmid mix (encoding LP1, LP2 and VSV-G) into 293T cells, and viral particles were harvested after 72 h and used to infect HCT116 and RKO cells. Stable cell lines were generated by selection with 400 µg/ml Zeocin and plated into 6-well plates for western blot analysis or into 384-well plates for compound treatments and cell viability determination using CellTiter-Glo as described above.

[3] = tested on: succinate dehydrogenase flavoprotein subunit (SDHA); experiment: Immunoblot of nuclear-encoded SDHA in HCT116 and RKO cells; assay type: cell-based, human; settings: 4 days
Description: Whole cell lysates were prepared using RIPA buffer (Cell Signaling Technology) supplemented with EDTA-free protease inhibitor cocktail (Roche Applied Science), cleared by centrifugation at 16,000× g for 10 min, normalized based on protein concentration (Bio-Rad protein assay), boiled in NuPAGE LDS sample buffer (Invitrogen) supplemented with 2% ß-mercaptoethanol, and separated on NuPAGE 4–12% Bis-Tris gels using MOPS running buffer (Invitrogen). Proteins were transferred to nitrocellulose membranes and probed with the following primary antibodies: rabbit polyclonal antibody against mEF-G1 (Sigma, HPA034765), rabbit monoclonal antibody against GAPDH (Cell Signaling Technology, 14C10), mouse monoclonal antibodies against COX2 (Invitrogen, A6404) or SDHA (MitoSciences, MS204). Immobilized primary antibodies were visualized using HRP-conjugated anti-rabbit or anti-mouse IgG (Millipore, AP307P and AP308P) and enhanced chemiluminescence (Pierce).

[4] = tested on: recombinant human mEF-G1 S452L; experiment: Biacore binding, human mEF-G1 S452L; settings: 10, 20, 40 µM, HBS-P+ pH 7.4, 4% DMSO
Description: GFM1 encoding the active site of EF-G1 (residues 36–751) was PCR amplified from pDONR221 constructs using primers (GGGGACAAGTTTGTACAAAAAAGCAGGCTTAATGTCTTCATCAGGGGTGATT, GGGGACCACTTTGTACAAGAAAGCTGGGTATTAGTTCTTGGCTTTTCC). P. aeroginosa fusA1 encoding full-length EF-G was PCR amplified from pET28a-PaEFG-Nhis using primers (GGGGACCACTTTGTACAAGAAAGCTGGGTATTATCAACCTTGTTTTTT, GGGGACAAGTTTGTACAAAAAAGCAGGCTTAATGGCCCGTACTACACCC). Purified PCR products were cloned into the pDONR221 vector using Gateway cloning and BP Clonase II (Invitrogen), shuttled into an E.coli protein expression vector for N-terminal tagging (Avitag-His6 vector) using LR Clonase II (Invitrogen), and verified by sequencing. Avitag-His6-hEF-G1 and Avitag-His6-PaEF-G constructs were transformed into BL21-AI cells (Invitrogen) and isolated single colonies were used to inoculate 5 ml cultures which were grown overnight at 37°C with shaking. […]. Briefly, protein was captured on column using binding buffer (50 mM Tris; pH 7.5, 300 mM NaCl, 20 mM imidazole, 10% glycerol), washed extensively with washing buffer (50 mM Tris; pH 7.5, 500 mM NaCl, 30 mM imidazole, 10% glycerol), and then eluted with elution buffer (50 mM Tris; pH 7.5, 500 mM NaCl, 250 mM imidazole, 10% glycerol). […]

For `C=C1NC(=O)CN(C)C(=O)CNC(=O)[C@H](Cc2c[nH]c3cccc(OC)c23)NC(=O)[C@H](Cc2c[nH]c3ccccc23)NC(=O)c2csc(n2)[C@@H](C)NC(=O)[C@@H](CC)NC1=O` [argyrin B] (cyclo([dAbu][dAla(ψthiazole)]W[Trp(4-OMe)]G[Sar][Dha])), the “Susceptibility to argyrin B” value ([1]; P. aeruginosa ATCC 12055 (parent of ATCC 35151)) was 8 µg/mL, the “Susceptibility to argyrin B” value ([1]; P. aeruginosa ATCC 35151 (Z61), hypersensitive) was 0.125 to 0.25 µg/mL and the “Susceptibility to argyrin B” value ([1]; P. aeruginosa CDA0055 (Z61, FusA1 S417L)) was 64 µg/mL. For the same compound, the “Susceptibility to argyrin B” value ([1]; P. aeruginosa CDA0056 (Z61, FusA1 S459F)) was 8 µg/mL, the “Susceptibility to argyrin B” value ([1]; P. aeruginosa CDA0061 (Z61, FusA L663Q)) was greater than 128 µg/mL and the “Susceptibility to argyrin B” value ([1]; P. aeruginosa CDR0052 (K767, FusA1 T671A)) was greater than 128 µg/mL. For the same compound, the “Susceptibility to argyrin B” value ([1]; P. aeruginosa CDR0054 (K767, FusA1 S459F)) was greater than 128 µg/mL, the “Susceptibility to argyrin B” value ([1]; P. aeruginosa CDR0055 (K767, FusA1 S417L)) was greater than 128 µg/mL and the “Susceptibility to argyrin B” value ([1]; P. aeruginosa CDR0056 (K767, FusA1 Y683C)) was greater than 128 µg/mL. For the same compound, the “Susceptibility to argyrin B” value ([1]; P. aeruginosa CDR0057 (K767, FusA1 P486S)) was greater than 128 µg/mL, the “Susceptibility to argyrin B” value ([1]; P. aeruginosa CDR0058 (K767, FusA1 P414S)) was greater than 128 µg/mL and the “Susceptibility to argyrin B” value ([1]; P. aeruginosa K767 (PAO1, prototroph)) was 8 µg/mL. For the same compound, the “Sensitivity of mutants to argyrin B (in words)” value ([1]; P. aeruginosa Z61 mutants with S417L and S459F substitutions) was “still partially sensitive”, the “Lowering of IC50 by knock down of mEF-G1” value ([2]; HCT116, GFM1 siRNA, CellTiter Glo) was “circa 9.6 fold” and the “Decrease of susceptibility on expression of mEF-G1 L693Q” value ([2]; HCT116, mEF-G1 L693Q) was 4.7 fold. For the same compound, the “Sensitivity change on expression of mEF-G1 S452L and S494F (in words)” value ([2]; HCT116, mEF-G1 S452L and S494F) was “only marginal effects”, the “Sensitivity change on overexpression of mEF-G1 WT (in words)” value ([2]; HCT116, mEF-G1 WT stable overexpression) was “did not alter the argyrin B-sensitivity” and the “SDHA protein level (in words)” value ([3]; HCT116, 1 µM argyrin B) was “did not affect the levels”. The “SDHA protein level (in words)” value ([3]; RKO, 1 µM argyrin B) was “did not affect the levels” and the “Binding to human mEF-G1 (in words)” value [4] was “still bound”.
